According to US10988600B2, “Cyclodextrin-grafted cross-linked hyaluronic acid complexed with active drug substances and uses thereof” (GALDERMA S.A., priority 2016, dated 2021):

Assay: Solubility study of adapalene with randomly methylated β-cyclodextrins
Type: physicochemical
Method: A solubility study was performed by adding excess amounts of adapalene (5 mg) to six glass vials containing 10 mL aqueous solutions of increasing concentrations of randomly methylated β-cyclodextrins (0-7×10^−3 M) dissolved in 154 mM NaCl and 10 mM Na-phosphate (pH 7). The samples were mixed at room temperature for six days, and then they were centrifuged at 4000 rpm for 3 minutes. The supernatants were filtered through a 0.2 μm filter in order to remove undissolved adapalene. The UV absorbance of the filtrates was then measured at 320 nm in order to determine the concentration of dissolved adapalene. The concentration of adapalene in each sample was calculated from a calibration curve.
For sample 1, from the solubility diagram study in Example 16 containing 0.7 mM randomly methylated β-cyclodextrin and an excess of adapalene, 550 μl of the filtered sample, was added to a 2 ml Eppendorf tube. The sample was then lyophilized and the solvent exchanged to D2O.
Sample 2 containing 1.5 mM randomly methylated β-cyclodextrin and 0.15 mM of adapalene dissolved in D2O and 1% DMSO-d6 was prepared by adding 550 μl of the sample to a 2 ml Eppendorf tube. The sample was then lyophilized and the solvent exchanged again to D2O.

Complexed adapalene (sample 1: 0.7 mM randomly methylated β-cyclodextrin, excess adapalene, filtered, according to solubility diagram data): about 0.075 mM
Complexed adapalene (sample 2: 1.5 mM randomly methylated β-cyclodextrin and 0.15 mM adapalene in D2O and 1% DMSO-d6): about 0.15 mM
Structure (SMILES): COc1ccc(-c2ccc3cc(C(=O)O)ccc3c2)cc1C12CC3CC(CC(C3)C1)C2 [adapalene, 6-[3-(1-adamantyl)-4-methoxy-phenyl] naphthalene-2-carboxylic acid]
Solubility of adapalene (randomly methylated β-cyclodextrins 0-7×10^−3 M, 154 mM NaCl, 10 mM Na-phosphate pH 7, room temperature, six days (FIG. 3)): increases with increasing CD concentration
